Data: US8323706B2, “Antiestrogenic glyceollins suppress human breast and ovarian carcinoma proliferation and tumorigenesis” (The United States of America, as represented by the …, priority 2005, dated 2012)

Tests used:
Mouse uteri = test: Uterine weight and morphology (uterotrophic assay) in nu/nu mice
[1] = tested on: MCF-7 breast carcinoma cells; test: MCF-7 xenograft tumor growth in ovariectomized nu/nu mice; assay type: in vivo; conditions: estradiol pellet alone; day 20; mean±SEM
Protocol: (§1) Cages, bedding, food, and water were autoclaved before use. […] Tumor size was measured every two days using calipers.
(§2) The in vivo effects of glyceollins on tumor growth formation were determined. MCF-7 or BG-1 cells were implanted into the mammary fat pad of female ovariectomized nude mice. Mice were divided into two groups: those animals implanted s.c. with estradiol pellets and those without. Tumors were implanted using Matrigel (reduced factor) to enhance tumor incidence and promote tumor growth in the presence and absence of estrogen. Glyceollins (or vehicle) were injected daily for 20 days. Measurable tumors were observed on Day 8 for both MCF-7 cells (FIG. 3) and BG-1 cells (FIG. 4). […] Estrogen stimulated the formation of rapidly growing tumors in both MCF-7 and BG-1 implanted mice, reaching a maximal size of 3074±843 mm^3 in MCF-7 and 3836±756 mm^3 in BG-1 implanted animals by day 20 of treatment. In the negative control animals (without estrogen pellets or glyceollins), tumor incidence occurred on […] and tumors grew slowly with a maximal size of 899±24 mm^3 for MCF-7 cells and 976±42 mm^3 for BG-1 cells on day 20 of treatment. […]
(§3) Data Analysis: Data for MCF-7N and BG-1 tumor size were analyzed separately using repeated measures two-way ANOVA with treatment and time as independent factors (SigmaStat 3.1). […]

[2] = tested on: progesterone receptor (PR); test: Progesterone receptor immunohistochemistry in MCF-7 tumor explants; assay type: in vivo, mice; conditions: treatment alone vs control; MCF-7 tumors
Description: (§4) Tumor explants were resected at necropsy, fixed in 70% ethanol, embedded in paraffin, and immunostained using a primary monoclonal antibody for human progesterone receptor (PR) (NCL-PGR, Novocastra, Newcastle-upon-Tyne, UK). Staining methods included antigen-retrieval with citrate buffer (pH 6.0), biotinylated rabbit anti-mouse Fc antibody as a linking reagent, alkaline phosphatase-conjugated streptavidin as the label, and Vector Red as the chromogen (Vector Laboratories, Burlingame, Calif.). Cell staining was quantified by a computer-assisted counting technique, using a grid filter to select cells for counting (Darvill et al., supra; Burow et al., supra). At least two microscopic fields were randomly selected for each tumor and 200 cells were counted at 40× magnification. Numbers of positively stained cells were expressed as a percentage of the total number examined. All measurements were made blinded to treatment group.
(§5) Progesterone receptor expression is an estrogen-sensitive marker driven by ER transactivation. In this study we used PR immunostaining to evaluate (a) whether glyceollin treatment alone was stimulating the ER as an agonist and (b) whether glyceollin treatment with estradiol (E2) was antagonizing ER activation.

[3] = tested on: progesterone receptor (PR); test: Progesterone receptor immunohistochemistry in BG1 tumor explants; assay type: in vivo, mice; conditions: treatment alone vs control; BG1 tumors
Description: as §4, §5

[4] = tested on: MCF-7 breast carcinoma cell; test: In vitro MCF-7 colony (clonogenicity) assay; assay type: cell-based, human; conditions: estrogen treatment alone
Protocol: The MCF-7N cell variant is a subclone of MCF-7 cells from the American Type Culture Collection (Manassas, Va.) that was generously provided by Louise Nutter (University of Minnesota, Minneapolis, Minn.) and has been previously described (Graham et al., supra). The BG-1 cell line has been previously described. MCF-7 and BG-1 cells were grown in Dulbecco's modified minimal medium (pH 7.4; Life Technologies, Inc., Grand Island, N.Y.) supplemented with 10% fetal bovine serum (Hyclone, Salt Lake City, Utah). For studies with estrogen, the cells were cultured in medium supplemented with 5% charcoal-stripped fetal bovine serum. The cells were incubated at 37° C. in an atmosphere of 5% CO2 and air.
MCF-7 cells are plated at 10^3/well in 6 well Cluster dishes, and incubated overnight. Cells are cultured and treated in DMEM without phenol red; phenol red interacts with estrogen receptors. Treatment and control plates were incubated at 37° C., 5% CO2. Plates were observed periodically. When colonies were of a size of 50 cells or more, at Day 14, cells were fixed with glutaraldehyde for 30 min at 37° C., washed, and stained with Crystal violet (0.4%) for 1 hr. Colonies were counted manually. This method is used to study the effects of chemical or physical agents on cell survival and proliferation; 1 colony=1 cell. […]

[5] = tested on: BG-1 ovarian carcinoma cells; test: BG-1 xenograft tumor growth in ovariectomized nu/nu mice; assay type: in vivo; conditions: estradiol pellet alone; day 20; mean±SEM
Protocol: as §1, §2, §3

SMILES | uterine fixed weight over control (Mouse uteri; treatment alone, 20 days) | tumor size (maximal) [1] [mm^3] | PR expression [2] | PR expression [3] | colony formation [4] | tumor size (maximal) [5] [mm^3] | uterine histology (Mouse uteri; H&E-stained uteri, treatment alone) | Uterine area, uterine diameter, and epithelial height (Mouse uteri; treatment alone vs control)
CC/C(=C(\c1ccccc1)c1ccc(OCCN(C)C)cc1)c1ccccc1 [tamoxifen] | increase uterine fixed weight over control | – | – | – | – | – | – | –
C[C@]12CC[C@@H]3c4ccc(O)cc4CC[C@H]3[C@@H]1CC[C@@H]2O [Glyceollin E2, 17β-estradiol] | – | 3074±843 | significantly increased PR expression | significantly increased PR expression | enhanced colony formation | 3836±756 | markedly larger with epithelial pseudostratification, stromal edema and hyperplasia, and increased numbers of endometrial glands | significantly increased
